Columns and labels:
[1] = tested on: CD8+ T cells; assay: In vitro immunogenicity: T-cell priming with aAPCs loaded with peptide/MHC and anti-CD28, pMHC multimer readout; type: cell-based, human; details: for Wells positive [%]: percentage of positive wells among evaluable, HLA-A*02 restricted peptides
Description: In order to obtain information regarding the immunogenicity of the TUMAPs of the present invention, the inventors performed investigations using an in vitro T-cell priming assay based on repeated stimulations of CD8+ T cells with artificial antigen presenting cells (aAPCs) loaded with peptide/MHC complexes and anti-CD28 antibody.
In order to perform in vitro stimulations by artificial antigen presenting cells loaded with peptide-MHC complex (pMHC) and anti-CD28 antibody, the inventors first isolated CD8+ T cells from fresh HLA-A*02 leukapheresis products via positive selection using CD8 microbeads (Miltenyi Biotec, Bergisch-Gladbach, Germany) of healthy donors obtained from the University clinics Mannheim, Germany, after informed consent. PBMCs and isolated CD8+ lymphocytes were incubated in T-cell medium (TCM) until use consisting of RPMI-Glutamax (Invitrogen, Karlsruhe, Germany) supplemented with 10% heat inactivated human AB serum (PAN-Biotech, Aidenbach, Germany), 100 U/ml Penicillin/100 μg/ml Streptomycin (Cambrex, Cologne, Germany), 1 mM sodium pyruvate (CC Pro, Oberdorla, Germany), 20 μg/ml Gentamycin (Cambrex). 2.5 ng/ml IL-7 (PromoCell, Heidelberg, Germany) and 10 U/ml IL-2 (Novartis Pharma, Nürnberg, Germany) were also added to the TCM at this step. Generation of pMHC/anti-CD28 coated beads, T-cell stimulations and readout was performed in a highly defined in vitro system using four different pMHC molecules per stimulation condition and 8 different pMHC molecules per readout condition.
The purified co-stimulatory mouse IgG2a anti human CD28 Ab 9.3 (Jung et al., 1987) was chemically biotinylated using Sulfo-N-hydroxysuccinimidobiotin as recommended by the manufacturer (Perbio, Bonn, Germany). Beads used were 5.6 μm diameter streptavidin coated polystyrene particles (Bangs Laboratories, Illinois, USA).
pMHC used for positive and negative control stimulations were A*0201/MLA-001 (peptide […] (SEQ ID NO. 289) from modified Melan-A/MART-1) and A*0201/DDX5-001 ([…] from DDX5, SEQ ID NO. 290), respectively.
800.000 beads/200 μl were coated in 96-well plates in the presence of 4×12.5 ng different biotin-pMHC, washed and 600 ng biotin anti-CD28 were added subsequently in a volume of 200 μl. Stimulations were initiated in 96-well plates by co-incubating 1×10^6 CD8+ T cells with 2×10^5 washed coated beads in 200 μl TCM supplemented with 5 ng/ml IL-12 (PromoCell) for 3 days at 37° C. Half of the medium was then exchanged by fresh TCM supplemented with 80 U/ml IL-2 and incubating was continued for 4 days at 37° C. This stimulation cycle was performed for a total of three times. For the pMHC multimer readout using 8 different pMHC molecules per condition, a two-dimensional combinatorial coding approach was used as previously described (Andersen et al., 2012) with minor modifications encompassing coupling to 5 different fluorochromes. Finally, multimeric analyses were performed by staining the cells with Live/dead near IR dye (Invitrogen, Karlsruhe, Germany), CD8-FITC antibody clone SK1 (BD, Heidelberg, Germany) and fluorescent pMHC multimers. For analysis, a BD LSRII SORP cytometer equipped with appropriate lasers and filters was used. Peptide specific cells were calculated as percentage of total CD8+ cells. Evaluation of multimeric analysis was done using the FlowJo software (Tree Star, Oregon, USA). In vitro priming of specific multimer+CD8+ lymphocytes was detected by comparing to negative control stimulations.

[2] = target: HLA-A*02:01 (Homo sapiens, UniProt P04439, D140Y/D185E/D98H/E176V/E277Q/G131W/G231S/I119V/I121R/I166T/I218V/L300P/L318F/N151K/N90K/P208A/P217A/Q86G/Q94H/R138H/R169H/T345S); assay: MHC binding assay: UV-ligand exchange with beta2m ELISA (peptide exchange yield); details: binding to HLA-A*02:01, β2m ELISA
Description: Candidate peptides for T cell based therapies according to the present invention were further tested for their MHC binding capacity (affinity). The individual peptide-MHC complexes were produced by UV-ligand exchange, where a UV-sensitive peptide is cleaved upon UV-irradiation, and exchanged with the peptide of interest as analyzed. Only peptide candidates that can effectively bind and stabilize the peptide-receptive MHC molecules prevent dissociation of the MHC complexes. To determine the yield of the exchange reaction, an ELISA was performed based on the detection of the light chain (β2m) of stabilized MHC complexes. The assay was performed as generally described in Rodenko et al. (Rodenko et al., 2006).
96 well MAXISorp plates (NUNC) were coated over night with 2 ug/ml streptavidin in PBS at room temperature, washed 4× and blocked for 1 h at 37° C. in 2% BSA containing blocking buffer. Refolded HLA-A*02:01/MLA-001 monomers served as standards, covering the range of 15-500 ng/ml. Peptide-MHC monomers of the UV-exchange reaction were diluted 100 fold in blocking buffer. Samples were incubated for 1 h at 37° C., washed four times, incubated with 2 ug/ml HRP conjugated anti-β2m for 1 h at 37° C., washed again and detected with TMB solution that is stopped with […]. Absorption was measured at 450 nm. Candidate peptides that show a high exchange yield (preferably higher than 50%, most preferred higher than 75%) are generally preferred for a generation and production of antibodies or fragments thereof, and/or T cell receptors or fragments thereof, as they show sufficient avidity to the MHC molecules and prevent dissociation of the MHC complexes.

Row | Peptide exchange (MHC class I binding score, peptide exchange yield) [2] | Substance | Wells positive [%] [1] | wells ([1]; percentage of positive wells, in vitro priming of CD8+ T cells of healthy HLA-A*02 donors) | donors ([1]; percentage of positive donors, in vitro priming of CD8+ T cells of healthy HLA-A*02 donors)
1 | +++ (= ≥50% = +++) | 4 (VLFGELPAL; listed as Homo sapiens) [compound 4] | + (<20% = +) |  | 
2 | +++ (= ≥50% = +++) | 9 (SLITGQDLLSV; listed as Homo sapiens) [compound 9] | + (<20% = +) |  | 
3 | +++ (= ≥50% = +++) | 14 (YTFSGDVQL; listed as Homo sapiens) [compound 14] | + (<20% = +) |  | 
4 |  | 17 (GLLPSAESIKL; listed as Homo sapiens) [compound 17] | + (<20% = +) |  | 
5 | +++ (= ≥50% = +++) | 27 (GLLGKVTSV; listed as Homo sapiens) [compound 27] | + (<20% = +) |  | 
6 |  | 29 (KMISAIPTL; listed as Homo sapiens) [compound 29] | + (<20% = +) |  | 
7 | +++ (= ≥50% = +++) | 34 (TLNTLDINL; listed as Homo sapiens) [compound 34] | ++++ (> = 70% = ++++) |  | 
8 |  | 35 (VIIKGLEEI; listed as Homo sapiens) [compound 35] | + (<20% = +) |  | 
9 | +++ (= ≥50% = +++) | 39 (YLEDGFAYV; listed as Homo sapiens) [compound 39] | ++++ (> = 70% = ++++) |  | 
10 | +++ (= ≥50% = +++) | 50 (ILLSVLHQL; listed as Homo sapiens) [compound 50] | + (<20% = +) |  | 
11 |  | 66 (AMFPDTIPRV; listed as Homo sapiens) [compound 66] | + (<20% = +) |  | 
12 | +++ (= ≥50% = +++) | 77 (ALYGNVQQV; listed as Homo sapiens) [compound 77] | + (<20% = +) |  | 
13 | +++ (= ≥50% = +++) | 89 (SLAETIFIV; listed as Homo sapiens) [compound 89] | + (<20% = +) |  | 
14 | +++ (= ≥50% = +++) | 97 (KLFEKSTGL; listed as Homo sapiens) [compound 97] | + (<20% = +) |  | 
15 | +++ (= ≥50% = +++) | 101 (SLLEVNEASSV; listed as Homo sapiens) [compound 101] | + (<20% = +) |  | 
16 | +++ (= ≥50% = +++) | 102 (GLYPVTLVGV; listed as Homo sapiens) [compound 102] | + (<20% = +) |  | 
17 |  | 121 (ALYVQAPTV; listed as Homo sapiens) [compound 121] | + (<20% = +) |  | 
18 |  | 157 (ILQDGQFLV; listed as Homo sapiens) [compound 157] | + (<20% = +) |  | 

Row | Peptide exchange (MHC class I binding score, peptide exchange yield) [2] | Substance | Wells positive [%] [1] | wells ([1]; percentage of positive wells, in vitro priming of CD8+ T cells of healthy HLA-A*02 donors) | donors ([1]; percentage of positive donors, in vitro priming of CD8+ T cells of healthy HLA-A*02 donors)
19 | +++ (= ≥50% = +++) | 233 (SLFESLEYL; listed as Homo sapiens) [compound 233] | + (<20% = +) |  | 
20 | +++ (= ≥50% = +++) | 236 (KMSELQTYV; listed as Homo sapiens) [compound 236] | + (<20% = +) |  | 
21 | +++ (= ≥50% = +++) | 242 (KLQEEIPVL; listed as Homo sapiens) [compound 242] | + (<20% = +) |  | 
22 | +++ (= ≥50% = +++) | 246 (ALAGIVTNV; listed as Homo sapiens) [compound 246] | + (<20% = +) |  | 
23 |  | 254 (ALGDKFLLRV; listed as Homo sapiens) [compound 254] | + (<20% = +) |  | 
24 | +++ (= ≥50% = +++) | 255 (FLMKNSDLYGA; listed as Homo sapiens) [compound 255] | + (<20% = +) |  | 
25 | +++ (= ≥50% = +++) | 257 (KLIDHQGLYL; listed as Homo sapiens) [compound 257] | + (<20% = +) |  | 
26 | +++ (= ≥50% = +++) | 260 (ALNESLVEC; listed as Homo sapiens) [compound 260] | + (<20% = +) |  | 
27 | +++ (= ≥50% = +++) | 263 (SIIEYLPTL; listed as Homo sapiens) [compound 263] | + (<20% = +) |  | 
28 |  | 264 (TLHDQVHLL; listed as Homo sapiens) [compound 264] | + (<20% = +) |  | 
29 | +++ (= ≥50% = +++) | 267 (YLLDMPLWYL; listed as Homo sapiens) [compound 267] | + (<20% = +) |  | 
30 | +++ (= ≥50% = +++) | 280 (HLWGHALFL; listed as Homo sapiens) [compound 280] |  |  | 
31 | +++ (= ≥50% = +++) | 283 (ALSELLQQV; listed as Homo sapiens) [compound 283] |  |  | 
32 | +++ (= ≥50% = +++) | 285 (MLLDTVQKV; listed as Homo sapiens) [compound 285] |  |  | 
33 | +++ (= ≥50% = +++) | 286 (FLTEMVHFI; listed as Homo sapiens) [compound 286] |  |  | 
34 |  | 287 (KIQEILTQV; listed as Homo sapiens) [compound 287] |  | + (<20% = +) | 
35 |  | 288 (SLYKGLLSV; listed as Homo sapiens) [compound 288] |  |  | ++++ (> = 70% = ++++)
